Converted amounts (≈) assume the structure as drawn.

What is called Cmax is the maximum level reached in the sampled fluid or tissue. What is called Tmax is the time from dosing to the highest level. The term solubility denotes the concentration that dissolves in the medium under given conditions.

A short description of data set [1]: Cmax in human at […], po after 3 months. To be noted: in vivo. Further details: route oral. Type of data set: ADME, organism-based.
Data set [2] is described as follows: Tmax in human at […], po after 3 months. Type of data set: ADME, organism-based. The note with it: in vivo.
A short description of data set [3]: Aqueous solubility of the compound. In kind it is physicochemical.

In turn, `COc1cc(/C=C/C(=O)CC(=O)/C=C/c2ccc(O)c(OC)c2)ccc1O` [CURCUMIN] returned a Cmax in data set [1] of 1770 nM. The Tmax in data set [2] was in the range of 1 to 2 h. Further, the solubility in data set [3] is 1000 to 10000 µg/mL (≈ 2.71 to 27.1 mM).
